Test results as given in patent US7186534B1 (The Trustees of Columbia University in the City of New York, priority 1997, dated 2007).

Tests used:
Assay type in all cases: biochemical
[1] = molecular target: T1, human 9cRDH (h9cRDH) (Homo sapiens, UniProt Q92781); experiment: Retinaldehyde isomer reduction by recombinant human 9cRDH
T1 sequence (Q92781 1-318): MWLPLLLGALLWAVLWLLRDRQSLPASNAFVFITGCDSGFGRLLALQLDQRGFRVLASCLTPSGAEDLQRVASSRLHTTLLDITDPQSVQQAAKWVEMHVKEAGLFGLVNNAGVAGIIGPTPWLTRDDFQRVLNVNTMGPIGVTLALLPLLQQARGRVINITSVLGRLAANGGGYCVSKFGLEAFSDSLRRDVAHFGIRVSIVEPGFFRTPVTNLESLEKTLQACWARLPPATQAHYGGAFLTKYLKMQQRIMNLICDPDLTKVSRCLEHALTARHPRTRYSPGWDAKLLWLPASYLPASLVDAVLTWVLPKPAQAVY
Method: (§1) Enzymatic Assays. Assays for human and mouse 9cRDH were carried out essentially as were described previously for human 9cRDH (19). For expression of mouse 9cRDH a cDNA clone obtained from a mouse liver cDNA library was employed (see below). Recombinant human or mouse 9cRDH expressed in CHO cells was incubated in an assay mixture containing 10 μM 9-cis-retinol (added in 0.02 mL ethanol) and 2 mM NAD in 10 mM Hepes, pH 8.0, containing 150 mM KCl, 1 mM EDTA, and 50 μg phosphotidyl choline for 15 min at 37° C. (final assay volume of 0.6 ml) with agitation. This assay mixture was used routinely to measure oxidation of 9-cis-retinol to 9-cis-retinaldehyde and in studies assessing oxidation of 11-cis-, 13-cis- and all-trans-retinol to their corresponding aldehydes. For some experiments, the ability of human or mouse 9cRDH to catalyze the reduction of 9-cis-, 11-cis-, 13-cis- or all-trans-retinaldehyde was assessed. To assess these reduction reactions, incubations were carried out in 100 mM sodium acetate, pH 5.0, containing 50 μg phosphotidyl choline and 2 mM NADH (or 2 mM NADPH) in a final volume of 0.6 ml for 15 min at 37° C.
(§2) Immediately following incubation of the assay, the assay mixture was denatured with an equal volume of absolute ethanol (0.6 ml), and the retinoids extracted into 2.5 ml of hexane. Following one backwash of the hexane extract with 0.5 ml of deionized water, the hexane was evaporated to dryness under a gentle stream of N2. The extracted retinoids were immediately redissolved in 120 μl of hexane and analyzed by normal phase HPLC as described below.

[2] = molecular target: T2, mouse 9cRDH (m9cRDH) (Mus musculus, UniProt O55240); experiment: Retinaldehyde isomer reduction by recombinant mouse 9cRDH
T2 sequence (O55240 1-318): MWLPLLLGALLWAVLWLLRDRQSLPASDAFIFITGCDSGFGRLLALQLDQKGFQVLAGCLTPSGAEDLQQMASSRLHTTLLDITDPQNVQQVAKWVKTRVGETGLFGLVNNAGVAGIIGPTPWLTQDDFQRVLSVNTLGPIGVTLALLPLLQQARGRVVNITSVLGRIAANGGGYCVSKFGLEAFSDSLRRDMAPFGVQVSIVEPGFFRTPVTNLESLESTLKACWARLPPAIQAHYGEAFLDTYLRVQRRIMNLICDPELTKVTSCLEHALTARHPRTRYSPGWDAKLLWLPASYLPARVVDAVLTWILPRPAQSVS
Method: as §1, §2

[3] = molecular target: T3, human 9cRDH (Homo sapiens, UniProt Q92781); experiment: Hydroxysteroid oxidation/reduction by human 9cRDH (TLC); details: 37° C., 1.5 h; TLC detection limit approximately 3 pmol/min/mg protein
T3 sequence (Q92781 1-318): T1 sequence (Q92781 1-318)
Method: (§3) To investigate whether human or mouse 9cRDH will catalyze oxidations or reductions of 3α-hydroxy-, 11β-hydroxy- or 17β-hydroxysteroids, these steroids were incubated at 37° C. for 1.5 h in the assay media described above for assessing oxidation/reduction of 9-cis-retinol/9-cis-retinaldehyde. The Hepes NAD^+-containing assay buffer described above was employed to assess hydroxysteroid oxidation and to assess hydroxysteroid reduction the acetate buffer containing NADH (or NADPH) assay buffer (see above) was employed. Immediately following incubation, the steroids were extracted as described above for retinoids. The final hexane extract was evaporated to near dryness and this was spotted onto a silica high performance TLC plate (Whatman Inc., Clifton, N.J.) and developed in hexane/diethyl ether/acetic acid (70:30:1, v/v) or ethyl acetate/chloroform (25:75, v/v). Steroids were visualized by charring after treatment of the TLC plates with an areosol of 10% (v/v) H2SO4 in methanol.
(§4) Biswas and Russell (32) have reported that rat liver all-trans-retinol dehydrogenase type I also uses several 3α-hydroxy- and 17β-hydroxysteroids as substrates. Chai et al. (18) also reported that hydroxysteroids are substrates for mouse liver cis-retinol dehydrogenase. Since human 9cRDH is approximately 50% identical to the rat liver enzymes and shares approximately 63% homology to mouse liver cis-retinol dehydrogenase, next investigated was whether these steroids might also be substrates for 9cRDH. To test this possibility it was determined whether human or mouse 9cRDH would catalyze oxidation of 5α-androstan-3α, 17β-diol, androsterone, testosterone or dihydrotestosterone to corresponding ketone products. Also investigated was whether human and/or mouse 9cRDH could catalyze reduction of the corresponding ketones. […] It is estimate, based on the lower limits for hydroxysteroid detection by TLC, that it would be possible to detect rates of hydroxysteroid oxidation as low as approximately 3 pmol/min/mg protein. This rate of hydroxysteroid oxidation is at least 2-orders of magnitude lower than Vmax values reported by Biswas and Russell (32) and Chai et al. (18) for oxidation of hydroxysteroids in their studies of enzymes that are able to oxidize both retinol and hydroxysteroids.

[4] = molecular target: T4, mouse 9cRDH (Mus musculus, UniProt O55240); experiment: Hydroxysteroid oxidation/reduction by mouse 9cRDH (TLC); details: 37° C., 1.5 h; TLC detection limit approximately 3 pmol/min/mg protein
T4 sequence (O55240 1-318): T2 sequence (O55240 1-318)
Method: as §3, §4

[5] = molecular target: T4, mouse 9cRDH; experiment: Inhibition of recombinant mouse 9cRDH activity (9-cis-retinol oxidation, CHO cell homogenate, HPLC); details: 10 μM steroid, equimolar to substrate; forward (retinol oxidation) or reverse (retinaldehyde reduction) direction
[6] = molecular target: T5, human 9-cis retinol dehydrogenase (9cRDH) (Homo sapiens, UniProt Q92781); experiment: Inhibition of recombinant human 9cRDH activity (9-cis-retinol oxidation, CHO cell homogenate, HPLC); details: 10 μM steroid, equimolar to substrate; forward (retinol oxidation) or reverse (retinaldehyde reduction) direction
T5 sequence (Q92781 1-318): T1 sequence (Q92781 1-318)

[7] = molecular target: T1, human 9cRDH (h9cRDH); experiment: Retinol isomer oxidation by recombinant human 9cRDH (substrate and cofactor specificity); details: for h9cRDH specific activity, retinol oxidation: substrate 10 μM, 15 min, 150–180 μg protein/assay, NAD+
Method: Enzymatic Assay of Retinol Dehydrogenase Activity. Transfected CHO cell pellets were homogenized in PBS at 4° C. using 50 strokes of a Dounce homogenizer For assay of retinol dehydrogenase activity, aliquots of unfractionated CHO cell homogenate were incubated with 10, μM retinol (either as the all-trans, 13-cis, or 9-cis isomer added in ethanol) and either 2 mM NAD+ or 2 mM NADP+ in 10 mM Hepes containing 150 mM KCl, 1 mM EDTA, and 10, μg/ml phosphotidyl choline at pH 8.0 and 37° C. for prechosen time intervals. The final assay volume was 0.6 ml. Assays were routinely carried out in amber glass tubes that had been flushed with N2 to shield the retinoids from both light and O2 All subsequent extractions and procedures were carried out in a manner that minimized exposure of the retinoids to light and O2.
Immediately following incubation, the assay mixture was denatured with an equal volume of absolute ethanol (0.6 ml), and the retinoids were extracted into 3 ml of HPLC grade hexane. Following one backwash of the hexane extract with 0.5 ml of deionized water, the hexane was evaporated to dryness under a gentle stream of N2, and the extracted retinoids were immediately redissolved in 120 μl of hexane and analyzed by normal phase HPLC (see below).
HPLC Procedures. Stereoisomers of both retinol and retinaldehyde were separated on a 4.6×250-mm Vydac 101HS54 silica column using hexane:n-propanol:1-octanol (98.9:1.0:0.1 v/v) flowing at 1.5 ml/min as the mobile phase. The running column was preceded by a silica guard column. Retinols and retinaldehydes were detected by UV absorbance at 350 nm. Retention times for all-trans-, 13-cis-, and 9-cis-retinols were established using purified compounds obtained as described above. Retention times for all-trans-, 13-cis-, and 9-cis-retinaldehyde were determined using commercial standards (Sigma). Quantities of each retinol and retinaldehyde isomer present in extracts were determined by comparisons of the integrated areas under the HPLC peaks with a standard curve constructed relating integrated peak area with known masses of each retinoid isomer. The concentrations of each retinoid isomer were determined by UV-visible spectrophotometry using published extinction coefficients for each retinol and retinaldehyde isomer (26).
as §1, §2

[8] = molecular target: T2, mouse 9cRDH (m9cRDH); experiment: Retinol isomer oxidation by recombinant mouse 9cRDH; details: for m9cRDH specific activity, retinol oxidation: substrate 10 μM, 15 min, 150–180 μg protein/assay, NAD+
Method: as §1, §2

[9] = equimolar concentrations, any substrate
[10] = substrate 10 μM, 15 min, 150–180 μg protein/assay, NADH, pH 5.0

Compound: NADPH
- reaction rate supported relative to NADH, human 9cRDH retinaldehyde reduction [1, 9]: ≤ 10%
- reaction rate supported relative to NADH, mouse 9cRDH retinaldehyde reduction [2, 9]: ≤ 10%

Compound: C[C@]12CC[C@@H](O)C[C@@H]1CC[C@@H]1[C@@H]2CC[C@]2(C)[C@@H](O)CC[C@@H]12 [5α-androstane-3α, 17βdiol]
- catalysis by human 9cRDH of hydroxysteroid oxidation to ketone products (or reduction of the corresponding ketones) [3]: Neither human nor mouse 9cRDH were found to catalyze
- catalysis by mouse 9cRDH of hydroxysteroid oxidation to ketone products (or reduction of the corresponding ketones) [4]: Neither human nor mouse 9cRDH were found to catalyze
- inhibition of mouse 9cRDH activity by hydroxysteroids [5]: none of these hydroxysteroids inhibited
- inhibition of human 9cRDH activity by hydroxysteroids [6]: none of these hydroxysteroids inhibited

Compound: CC1=C(/C=C/C(C)=C/C=C\C(C)=C\CO)C(C)(C)CCC1 [11-cis-retinol]
- h9cRDH specific activity, retinol oxidation [7]: 442 pmol/min/mg protein
- m9cRDH specific activity, retinol oxidation [8]: 152 pmol/min/mg protein

Compound: CC1=C(/C=C/C(C)=C\C=C\C(C)=C\CO)C(C)(C)CCC1 [9-cis-retinol]
- oxidation to the corresponding retinaldehyde by transfected CHO cell homogenate (in words) ([7]; 2 mM NAD+): avidly oxidized
- share of the added retinol oxidized to retinaldehyde by CHO cell homogenate ([7]; in assay concentration 10 μM): Over 60%
- h9cRDH specific activity, retinol oxidation [7]: 367 pmol/min/mg protein
- rate of oxidation by mouse enzyme as multiple of the rate of 11-cis-retinol oxidation [8]: 2 times
- m9cRDH specific activity, retinol oxidation [8]: 328 pmol/min/mg protein

Compound: CC1=C(/C=C/C(C)=C/C=C\C(C)=C\C=O)C(C)(C)CCC1 [11-cis-retinaldehyde]
- h9cRDH specific activity, retinaldehyde reduction [1, 10]: 1220 pmol/min/mg protein
- m9cRDH specific activity, retinaldehyde reduction [2, 10]: 506 pmol/min/mg protein

Compound: CC1=C(/C=C/C(C)=C/C=C/C(C)=C\CO)C(C)(C)CCC1 [13-cis-retinol]
- rate of oxidation relative to that observed for 9-cis-retinol ([7]; first series, 2 mM NAD+, 10 μM retinol): 10%
- h9cRDH specific activity, retinol oxidation [7]: 0.3 pmol/min/mg protein
- m9cRDH specific activity, retinol oxidation [8]: 2.0 pmol/min/mg protein
